Data taken from EP0233441A1, “New enzyme inhibitor” (Astra Läkemedel Aktiebolag, priority 1985, dated 1987).

Assays:
[1] = target: CMP-KDO lipid A transferase (KLT) (Salmonella typhimurium, UniProt Q8ZL49); assay: KLT Assay (incorporation of [14-C]-labelled CMP-KDO into acid-insoluble product; CMP-KDO generated in situ by added CKS); assay type: biochemical; details: percent of a control without inhibitor, read-out: Percentage of inhibition of KLT
Protocol: (§1) Potential inhibitors were tested for inhibitory action against two key enzymes involved in the biosynthesis of bacterial LPS.
CMP-KDO lipid A transferase (KLT) which transfers CMP-KDO to an intermediate in the biosynthesis of LPS known as lipid A precursor [drawing 21]
The KLT enzyme was purified essentially by the method of Osborne (J.Biol.Chem. 252 (1977) 4895-4903). KLT activity was determined by monitoring the incorporation of [14-C]-labelled CMP-KDO into acid- insoluble product. The radio labelled CMP-KDO was generated in situ from CTP and [14-C]-KDO by the action of added CKS enzyme. The incubation mixture contained CKS enzyme, KLT enzyme, 110 mM Tris buffer pH 8.0, 10.6 mM NaCl, 0.5 mM CTP, 0.4%, Alfonic 1012-6 (Trade name), 0.16 mM [14-c] KDO and lipid A precursor. The final reaction volume was 150 µl. The mixture was incubated at 25°C for 15 min., when 50 µl was transferred to a filter paper circle (Munktell No. 5,24 mm.) and then washed copiously with 10% TCA. The radioactivity adsorbed on the paper circle, which represents radiolabelled KDO bound to precursor was determined using liquid scintillation counting.
(§2) Inhibition of CKS and KLT enzymes by compound I is given in Table I. The inhibitory action is expressed in percent of a control without inhibitor run simultaneously.

[2] = target: T1, CMP-KDO synthetase (CKS) (Escherichia coli, UniProt P04951); assay: CKS Assay (enzyme inhibition); assay type: biochemical; details: percent of a control without inhibitor, read-out: Percentage of inhibition of CKS
T1 construct: made in house
Protocol: as §1
I. CMP-KDO synthetase (CKS) which catalyses the reaction [drawing 20]
The CKS enzyme was prepared essentially as described by Osborne [J-.Biol.Chem. […]] and the enzyme assayed by the method of Ghalambor and Heath (J.Biol.Chem. 241 (1966) 3216-3221).
as §2

T1 sequence (P04951 whole entry): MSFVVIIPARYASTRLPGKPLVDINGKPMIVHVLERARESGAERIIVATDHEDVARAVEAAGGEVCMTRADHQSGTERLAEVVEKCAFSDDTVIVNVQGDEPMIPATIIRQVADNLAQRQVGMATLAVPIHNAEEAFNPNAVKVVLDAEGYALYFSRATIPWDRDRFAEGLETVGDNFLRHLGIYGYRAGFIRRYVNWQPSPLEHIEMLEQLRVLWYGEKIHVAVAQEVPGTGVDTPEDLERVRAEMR
CMP-KDO lipid A transferase (KLT), sequence (Q8ZL49 entry or part of it): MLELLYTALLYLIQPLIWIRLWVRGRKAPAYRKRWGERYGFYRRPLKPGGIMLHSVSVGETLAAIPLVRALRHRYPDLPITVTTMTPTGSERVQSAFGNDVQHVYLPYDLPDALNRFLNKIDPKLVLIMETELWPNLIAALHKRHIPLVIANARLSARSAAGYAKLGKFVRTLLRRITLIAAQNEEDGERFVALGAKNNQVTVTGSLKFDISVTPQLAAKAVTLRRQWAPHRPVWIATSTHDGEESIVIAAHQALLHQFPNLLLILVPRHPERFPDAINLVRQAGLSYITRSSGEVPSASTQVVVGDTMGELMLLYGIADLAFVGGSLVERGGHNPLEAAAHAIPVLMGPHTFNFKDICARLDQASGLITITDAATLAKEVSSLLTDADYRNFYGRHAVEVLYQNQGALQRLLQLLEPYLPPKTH

O=C(O)[C@@H]1C[C@@H](O)[C@@H](O)[C@@H]([C@H](O)CO)O1 [compound I, ammonium 2,6-anhydro-3-deoxy-D- -glycero-D -talo-octonate]
inhibition at 0.625 µM ([1]; 0.000625 mM compound): 5%
inhibition at 2.5 µM ([1]; 0.0025 mM compound): 24%
inhibition at 10 µM ([1]; 0.01 mM compound): 57%
inhibition at 40 µM ([1]; 0.04 mM compound): 81%
inhibition at 160 µM ([1]; 0.16 mM compound): 89%
inhibition at 640 µM ([1]; 0.64 mM compound): 98%
inhibition at 2.5 µM ([2]; 0.0025 mM compound): 8%
inhibition at 10 µM ([2]; 0.01 mM compound): 36%
inhibition at 40 µM ([2]; 0.04 mM compound): 68%
inhibition at 160 µM ([2]; 0.16 mM compound): 90%
inhibition at 640 µM ([2]; 0.64 mM compound): 98%
inhibition at 2540 µM ([2]; 2.54 mM compound): 99%
inhibition at 10160 µM ([2]; 10.16 mM compound): 98%
